According to patent publication US8957017B2, “Dipeptoid prodrugs and their use” (Bayer Intellectual Property GmbH, priority 2007, dated 2015):
Where a name gives a salt, the structure may show the parent alone.

Assays:
[1] = Stability in buffer at various pH values; format: physicochemical
Experimental: b) Stability in Buffer at Various pH Values:
0.3 mg of the test substance is weighed into a 2 ml HPLC vial and 0.5 ml of acetonitrile or acetonitrile/DMSO (9:1) is added. The substance is dissolved by putting the sample vessel in an ultrasonic bath for about 10 seconds. Then 0.5 ml of the respective buffer solution is added, and the sample is again treated in the ultrasonic bath.
pH 2: 0.03 mol of citric acid, 0.061 mol of sodium chloride and 0.0082 mol of hydrochoric acid ad 1 liter of water;
pH 4: 1 liter of Millipore water is adjusted to pH 4.0 with 1 N hydrochloric acid;
pH 5: 0.096 mol of citric acid and 0.2 mol of sodium hydroxide ad 1 liter of water;
pH 6: 0.06 mol of citric acid and 0.16 mol of sodium hydroxide ad 1 liter of water;
pH 7.4: 90.0 g of sodium chloride, 13.61 g of potassium dihydrogen phosphate and 83.35 g of 1 N sodium hydroxide solution are made up to 1 liter with water; this solution is then further diluted 1:10 with Millipore water.
pH 8: 0.013 mol of borax and 0.021 mol of hydrochloric acid ad 1 liter of water.
5 μl portions of the test solution are analyzed by HPLC for their content of unchanged test substance, and of parent substance (A) produced, every hour over a period of 24 hours at 37° C. The percentage areas of the appropriate peaks are used for quantification.
The ratios of the peak areas (F) at the respective time points in relation to the peak areas at the starting time are shown in Table 2 for representative exemplary embodiments: […]

[2] = Determination of the solubility in 5% strength aqueous dextrose solution; format: physicochemical; conditions: saline or isotonic, thermodynamic from solid, room temperature, 24 h
Experimental: a) Determination of the Solubility:
The test substance is suspended in 5% strength aqueous dextrose solution. This suspension is shaken at room temperature for 24 h. After ultracentrifugation at 224 000 g for 30 min, the supernatant is diluted with DMSO and analysed by HPLC. A two-point calibration plot of the test compound in DMSO is used for quantification.
Agilent 1100 with DAD (G1315A), quat. Pump (G1311A), autosampler CTC HTS PAL, degasser (G1322A) and column thermostat (G1316A); column: Phenomenex Gemini C18, 5 μm, 50 mm×2 mm; temperature: 40° C.; eluent A: water/phosphoric acid pH 2, eluent B: acetonitrile; flow rate: 0.7 ml/min; gradient: 0-0.5 min 85% A, 15% B; ramp 0.5-3 min 10% A, 90% B; 3-3.5 min 10% A, 90% B; ramp 3.5-4 min 85% A, 15% B; 4-5 min 85% A, 15% B.
Agilent 1100 with DAD (G1315A), quat. pump (G1311A), autosampler CTC HTS PAL, degasser (G1322A) and column thermostat (G1316A); column: VDSoptilab Kromasil 100 C18, 3.5 μm, 60 mm×2.1 mm; temperature: 30° C.; eluent A: water+5 ml of perchloric acid/liter, eluent B: acetonitrile; flow rate: 0.75 ml/min; gradient: 0-0.5 min 98% A, 2% B; ramp 0.5-4.5 min 10% A, 90% B; 4.5-6 min 10% A, 90% B; ramp 6.5-6.7 min 98% A, 2% B; 6.7-7.5 min 98% A, 2% B.

C[C@H](NC(=O)[C@@H](N)CCCNC(=N)N)C(=O)OCCOc1ccc(-c2c(C#N)c(N)nc(SCc3csc(-c4ccc(Cl)cc4)n3)c2C#N)cc1 [Example 14, 2-{4-[2-Amino-6-({[2-(4-chlorophenyl)-1,3-thiazol-4-yl]methyl}sulfanyl)-3,5-dicyanopyridin-4-yl]-phenoxy}ethyl L-arginyl-L-alaninate dihydrochloride]
% test substance after 4 h [F(t = 4 h) × 100/F(t = 0 h)] ([1]; pH 4, 37° C.): 100% | % test substance after 24 h [F(t = 24 h) × 100/F(t = 0 h)] ([1]; pH 4, 37° C.): 100% | % test substance after 4 h [F(t = 4 h) × 100/F(t = 0 h)] ([1]; pH 7.4, 37° C.): 68% | % test substance after 24 h [F(t = 24 h) × 100/F(t = 0 h)] ([1]; pH 7.4, 37° C.): 8% | solubility thermodynamic at 24 h [2]: > 0.5 mg/mL

C[C@H](NC(=O)[C@@H](N)Cc1cnc[nH]1)C(=O)OCCOc1ccc(-c2c(C#N)c(N)nc(SCc3csc(-c4ccc(Cl)cc4)n3)c2C#N)cc1 [Example 15, 2-{4-[2-Amino-6-({[2-(4-chlorophenyl)-1,3-thiazol-4-yl]methyl}sulfanyl)-3,5-dicyanopyridin-4-yl]-phenoxy}ethyl L-histidyl-L-alaninate dihydrochloride]
solubility thermodynamic at 24 h [2]: 0.45 mg/mL

CC(C)C[C@H](NC(=O)[C@@H](N)CCCCN)C(=O)OCCOc1ccc(-c2c(C#N)c(N)nc(SCc3csc(-c4ccc(Cl)cc4)n3)c2C#N)cc1 [Example 11, 2-{4-[2-Amino-6-({[2-(4-chlorophenyl)-1,3-thiazol-4-yl]methyl}sulfanyl)-3,5-dicyanopyridin-4-yl]-phenoxy}ethyl L-lysyl-L-leucinate dihydrochloride]
% test substance after 4 h [F(t = 4 h) × 100/F(t = 0 h)] ([1]; pH 4, 37° C.): 100% | % test substance after 24 h [F(t = 24 h) × 100/F(t = 0 h)] ([1]; pH 4, 37° C.): 100% | % test substance after 4 h [F(t = 4 h) × 100/F(t = 0 h)] ([1]; pH 7.4, 37° C.): 90% | % test substance after 24 h [F(t = 24 h) × 100/F(t = 0 h)] ([1]; pH 7.4, 37° C.): 55% | solubility thermodynamic at 24 h [2]: > 0.5 mg/mL

CC(C)[C@H](NC(=O)CCN)C(=O)OCCOc1ccc(-c2c(C#N)c(N)nc(SCc3csc(-c4ccc(Cl)cc4)n3)c2C#N)cc1 [Example 2, 2-{4-[2-Amino-6-({[2-(4-chlorophenyl)-1,3-thiazol-4-yl]methyl}thio)-3,5-dicyanopyridin-4-yl]-phenoxy}ethyl β-alanyl-L-valinate hydrochloride]
% test substance after 4 h [F(t = 4 h) × 100/F(t = 0 h)] ([1]; pH 4, 37° C.): 100% | % test substance after 24 h [F(t = 24 h) × 100/F(t = 0 h)] ([1]; pH 4, 37° C.): 100% | % test substance after 4 h [F(t = 4 h) × 100/F(t = 0 h)] ([1]; pH 7.4, 37° C.): 100% | % test substance after 24 h [F(t = 24 h) × 100/F(t = 0 h)] ([1]; pH 7.4, 37° C.): 100%

N#Cc1c(N)nc(SCc2csc(-c3ccc(Cl)cc3)n2)c(C#N)c1-c1ccc(OCCOC(=O)[C@H](Cc2ccccc2)NC(=O)[C@@H](N)CCCCN)cc1 [Example 18, 2-{4-[2-Amino-6-({[2-(4-chlorophenyl)-1,3-thiazol-4-yl]methyl}sulfanyl)-3,5-dicyanopyridin-4-yl]-phenoxy}ethyl L-lysyl-L-phenylalaninate dihydrochloride]
solubility thermodynamic at 24 h [2]: 0.45 mg/mL

N#Cc1c(N)nc(SCc2csc(-c3ccc(Cl)cc3)n2)c(C#N)c1-c1ccc(OCCOC(=O)CC[C@H](NC(=O)CCC(=O)O)C(=O)O)cc1 [Example 9, (2S)-5-(2-{4-[2-Amino-6-({[2-(4-chlorophenyl)-1,3-thiazol-4-yl]methyl}thio)-3,5-dicyanopyridin-4-yl]phenoxy}ethoxy)-2-[(3-carboxypropanoyl)amino]-5-oxopentanoic acid]
% test substance after 4 h [F(t = 4 h) × 100/F(t = 0 h)] ([1]; pH 4, 37° C.): 100% | % test substance after 24 h [F(t = 24 h) × 100/F(t = 0 h)] ([1]; pH 4, 37° C.): 100% | % test substance after 4 h [F(t = 4 h) × 100/F(t = 0 h)] ([1]; pH 7.4, 37° C.): 100% | % test substance after 24 h [F(t = 24 h) × 100/F(t = 0 h)] ([1]; pH 7.4, 37° C.): 100%

N#Cc1c(N)nc(SCc2csc(-c3ccc(Cl)cc3)n2)c(C#N)c1-c1ccc(OCCOC(=O)CNC(=O)[C@@H](N)CCCCN)cc1 [Example 17, 2-{4-[2-Amino-6-({[2-(4-chlorophenyl)-1,3-thiazol-4-yl]methyl}sulfanyl)-3,5-dicyanopyridin-4-yl]-phenoxy}ethyl L-lysylglycinate dihydrochloride]
solubility thermodynamic at 24 h [2]: > 0.5 mg/mL
